{"source": "patent US5872118A", "about": "“Bicyclic amide derivatives and their use as muscle relaxants” (Glaxo Wellcome Inc., priority 1993, dated 1999)", "key": {"[1]": {"test_system": "carrageenan-induced cell accumulation and edema formation within the rat pleural cavity", "experiment": "carrageenan pleurisy assay (anti-inflammatory activity)", "type": "in vivo, rat (Lewis male)", "details": "po, fasted rats, 0.5 hr before carrageenan, 4 hr", "method": "The rats used in these experiments were Lewis males, weighing 160-180 g, assigned to groups consisting of 5 animals. Test compounds were given to fasted rats by oral gavage 0.5 hr prior to intrapleural injection of 50 mg carrageenan. After 4 hr, the pleural exudate was collected and the edema volume and cell number were determined. ED50 values were estimated by linear regression analysis, and represent the doses at which a given drug produced 50% inhibition of carrageenan-induced cell accumulation and edema formation within the rat pleural cavity."}, "[2]": {"test_system": "morphine-induced Straub tail", "experiment": "Straub tail test (central muscle relaxant activity)", "type": "in vivo", "details": "Mus musculus, 1 h; mice, oral gavage 60 min prior to scoring; dose preventing Straub tail in 50% of mice; read-out: Straub Tail p.o. ED50", "method": "Central muscle relaxant activity of compounds of formula (I) was determined using a Straub tail test based on that described by K. O. Ellis and J. F. Carpenter, Neuropharrnacol, 13, 211 (1974).\nThe Straub tail test result is reported as an ED50 in mg/kg. The ED50 is defined as the dose of compound administered, which prevents Straub tail in 50% of mice. The compound is administered by oral gavage 60 min. prior to scoring.\n(§1) Antagonism of morphine-induced Straub tail reflects central muscle relaxant efficacy while failure in the rotorod test reflects sedation and incoordination. Determination of the ratio of rotorod failure to antagonism of morphine-induced Straub tail is a means of assessing side effect liability of central muscle relaxants (G. D. Novak, Drug Dev. Res., 2, 383 (1982)."}, "CD-1 mice": {"test_system": "CD-1 mice", "experiment": "single dose oral toxicity", "type": "in vivo, male CD-1 mice", "details": "within the seven days post dosing, single oral gavage, male CD-1 mice", "method": "(§2) Single doses (15, 45, 100 or 250 mg/kg) were administered by oral gavage to groups of four non-fasted male CD-1 mice (Charles River).\n(§3) Single doses (5, 15, 40, 100, 250, 500 or 1000 mg/kg) were administered by oral gavage to groups of four non-fasted male CD-1 mice (Charles River)."}, "[3]": {"experiment": "single dose oral toxicity", "type": "in vivo, male CD-1 mice", "details": "mouse, in vivo; single oral gavage, non-fasted male CD-1 mice, seven days; read-out: maximum tolerated dose", "method": "as §2, §3"}, "[4]": {"experiment": "mouse rotorod test (sedation and incoordination)", "details": "in vivo, po; for selectivity ratio: ratio of rotorod ED50 to Straub tail ED50, p.o.", "method": "The side effect potential of these compounds was determined using the mouse rotorod test as described by G. D. Novak and J. M. Zwolshei, J.Pharmacological. Methods, 10, 175 (1983). Rotorod result is reported as ED50 in mg/kg. The ED50 is the dose which causes 50% of the animals to fail to maintain position on a cylinder rotating at 11 r.p.m.\nas §1"}, "[5]": {"test_system": "trypsin-induced rat hind limb hyperalgesia", "experiment": "trypsin-induced rat hind limb hyperalgesia assay (mild analgesia)", "type": "in vivo, rat (Lewis male)", "details": "po, fasted rats, 0.5 hours prior to trypsin, 50% inhibition of latency response", "method": "The rats used in these studies were Lewis male, weighing 160-180 g. and assigned to groups consisting of 5-6 animals. Test compounds were given to fasted rats by oral gavage 0.5 hours prior to the subplantar injection of […] trypsin in one hind limb. One hour later the rats were evaluated for hyperalgesia using an F-shaped mechanical force clamp on the injected hind limb metatarsal area. Latency (seconds) to the algesic response (vocalization or flight) was determined, with 4 seconds being the maximum latency allowed. ED50 values were estimated by linear regression analysis and represent the dose at which a given drug extended the latency response to produce 50% inhibition using the formula: (4 sec.-Control Latency)-(4 sec.-Test Latency)/4 sec.-Control Latency×100."}, "[6]": {"test_system": "algesic response to mechanical force clamp on the phalanges", "experiment": "phalanges algesic assay (strong analgesia)", "type": "in vivo, rat (Lewis male)", "details": "Rattus norvegicus, po, 1 h; p.o., fasted rats, one hour after dosing; 50% inhibition of latency response", "method": "The rats used in these studies were Lewis male weighing 160-180 g and assigned to groups of 5-6 animals. The phalanges algesic assay is an algesic test (no hyperalgesia) in which test compounds were given to fasted rats by oral gavage. One hour later an F-shaped mechanical force clamp was applied to the phalanges of one hind limb which initiated an algesic response(vocalization or flight). Latency (seconds) to the algesic response was determined with 3 seconds maximum allowed time. ED50 values were estimated by linear regression analysis and represent the dose at which a given compound extended the latency response to produce 50% inhibition using the formula: (3 sec.-Control Latency)-(3 sec.-Test Latency)/3 sec.-Control Latency×100."}, "[7]": {"test_system": "established adjuvant-induced polyarthritis", "experiment": "established adjuvant-induced polyarthritis", "type": "in vivo, rat (female Lewis)", "details": "50 mg/kg b.i.d.", "method": "The procedures for this test have been described in detail by R. Vinegar, J. F. Truax, J. L. Selph, A. Lea, and P. R. Johnston (J. Immunopharmacol. 1:497-520, 1979). The rats used in these studies were female Lewis rats whose starting weight was 190±10 g. Arthritic rats were assigned to treatment groups consisting of six animals each. Fed rats were dosed by oral gavage starting on day 21 post adjuvant injection; therapy was continued until day 28. The incidence and severity of arthritic lesions were assessed using a modification of the scoring procedure described by H. L. F. Currey and M. Ziff (J. Exp. Med. 121:185-203, 1968). Briefly, the bilateral joints were scored for erythema, edema, and ankylosis as outlined below:\nThe maximal possible score per rat was 40. Experimental results were analyzed by one-way ANOVA, followed by post hoc comparisons of treatment effects versus untreated arthritic control using the Newman-Keuls test. The percent inhibition of each drug-treated group was calculated from the mean relative to the arthritic control."}, "[8]": {"test_system": "maximal electroshock-induced convulsions", "experiment": "protection against maximal electroshock-induced convulsions", "type": "in vivo", "details": "ip; rat, i.p.; prevention of hind limb extension in 50% of animals; read-out: ED50 MES (maximal electroshock)", "method": "Anticonvulsant activity of compounds of formula (I) was determined using a method described by Mehta et al., J.Med.Chem., 24, 465 (1981).\nThe anticonvulsant activity is reported as an ED50 in mg/kg. The ED50 for protection against maximal electroshock-induced convulsions was the dose which prevented hind limb extension in 50% of the animals. The ED50 for protection against Metrazol-induced convulsions was the dose which prevented convulsions in 50% of the animals."}, "punished responding": {"test_system": "punished responding", "experiment": "anxiolytic activity, punished responding (Geller and Seifter)", "type": "in vivo", "details": "Rattus norvegicus, po; rats, p.o.; lowest dose producing significant increase in punished responding; read-out: MED (Minimal Effective Dose)", "method": "Anxiolytic activity of compounds of formula (I) was measured using the method of Geller and Seifter, J.Psychopharmacolgia, 1, 482 (1960) as modified by Pollard and Howard, Psychopharmacology, 62, 117 (1979). Clinically efficacious anxiolytics increase punished responding. The anxiolytic activity of the compound is reported as the lowest dose necessary to produce a significant increase in punished responding in rats(MED)."}, "[9]": {"details": "50% inhibition of cell accumulation, read-out: ED50 Cells"}, "[10]": {"details": "50% inhibition of edema formation, read-out: ED50 Edema"}}, "note": "Like-named read-outs stand apart in the source and are kept apart here.", "data": [{"smiles": "NC(=O)/C=C1\\CCc2ccc(F)cc21", "note": "[Example 1, (E)-2-(6-Fluoro-1-indanylidene)acetamide]", "values": [{"measurement": "ED50", "setting": "[1]; [9]", "result": 21, "unit": "mg/kg"}, {"measurement": "ED50", "setting": "[1]; [10]", "result": 20, "unit": "mg/kg"}, {"measurement": "ED50", "setting": "[2]", "result": 51, "unit": "mg/kg"}, {"measurement": "deaths", "setting": "CD-1 mice", "result": "no deaths"}, {"measurement": "MTD at 168 h", "setting": "[3]", "result": "> 250", "unit": "mg/kg"}, {"measurement": "TD50", "setting": "[4]", "result": 88, "unit": "mg/kg"}, {"measurement": "selectivity ratio", "setting": "[4]", "result": 1.7}]}, {"smiles": "NC(=O)/C=C1\\CCc2c(F)cc(F)cc21", "note": "[Example 5, (E)-2-(4,6-difluoro-1-indanylidene)acetamide]", "values": [{"measurement": "ED50", "setting": "[1]; [9]", "result": 16, "unit": "mg/kg"}, {"measurement": "ED50", "setting": "[1]; [10]", "result": 12, "unit": "mg/kg"}, {"measurement": "ED50", "setting": "[5]", "result": 4, "unit": "mg/kg"}, {"measurement": "ED50", "setting": "[6]", "result": 22, "unit": "mg/kg"}, {"measurement": "ED50", "setting": "[2]", "result": 54, "unit": "mg/kg"}, {"measurement": "deaths", "setting": "CD-1 mice", "result": "no deaths"}, {"measurement": "MTD at 168 h", "setting": "[3]", "result": "> 1000", "unit": "mg/kg"}, {"measurement": "TD50", "setting": "[4]", "result": 79, "unit": "mg/kg"}, {"measurement": "selectivity ratio", "setting": "[4]", "result": 1.5}, {"measurement": "arthritic scores", "setting": "[7]; days 22, 25, and 27, oral gavage", "result": "significantly (p<0.01) lowered"}, {"measurement": "Spleen weight", "setting": "[7]; postmortem on day 27", "result": "significantly reduced (p<0.01)"}, {"measurement": "plasma fibrinogen", "setting": "[7]; postmortem on day 27", "result": "significantly reduced (p<0.01)"}]}, {"smiles": "O=C(/C=C1\\CCCc2ccc(F)cc21)NC1CC1", "note": "[Example 13, (E)-N-Cyclopropyl-2-(7-fluoro-1,2,3,4-tetrahydro-1-naphthylidene)acetamide]", "values": [{"measurement": "ED50", "setting": "[8]", "result": 25, "unit": "mg/kg"}, {"measurement": "minimal effective dose", "setting": "punished responding", "result": 3.13, "unit": "mg/kg"}]}]}
